From patent publication US20120064008A1, “COMPOSITIONS FOR THE TREATMENT OF METASTATIC CANCER AND METHODS OF USE THEREOF” (priority 2009, published 2012)
Like-named read-outs stand apart in the source and are kept apart here.

How the values were obtained:
PC-3MLN4 cells = assay: Normalized mitotic index (histone H3 phospho-Serine-28), PC-3MLN4; type: cell-based; settings: Homo sapiens, at 1 μM; normalized against vehicle-treated cells; read-out: Normalized mitotic index PC-3MLN4
Text: (§1) The mitotic index for each agent was normalized against those obtained from vehicle-treated cells, and compared with the activity of paclitaxel, a known inducer of mitotic arrest.

PC-3M cells = assay: Normalized mitotic index (histone H3 phospho-Serine-28), PC-3M; type: cell-based; settings: Homo sapiens, at 1 μM, normalized against vehicle-treated cells, read-out: Normalized mitotic index PC-3M
Text: as §1

AT6.1 cells = assay: Normalized mitotic index (histone H3 phospho-Serine-28), AT6.1; type: cell-based; settings: Rattus norvegicus, at 1 μM; normalized against vehicle-treated cells; read-out: Normalized mitotic index AT6.1
Text: as §1

[1] = test system: AT6.1 Dunning rat prostate carcinoma; assay: Survival in intravenous AT6.1 Dunning rat prostate carcinoma lung metastasis model; type: in vivo, nu/nu mice; settings: for percent increase in life span (ILS %): 100 mg/kg i.p. three times a week, over vehicle-treated mice; for average survival time: FIG. 5 (carrier only 20.4 days)
Protocol: Many anti-tumor drugs are tested only for their ability to prevent primary tumor growth or to prevent the dissemination of metastatic cells. To accomplish this, the drug is usually administered shortly after the primary tumor is established. […] The benzimidazoles described herein were evaluated in an experimental metastases model in the lungs of nude mice following tail-vein injection of Dunning rat AT6.1 prostate carcinoma. […] In order to achieve greater bioavailability, we first solubilized benzimidazoles in DNTC formulation and then diluted with saline prior to injection.
Inbred male nu/nu mice age 6-8 weeks were obtained from Massachusetts General Hospital (Boston, Mass.). The mice were virus antibody free, age and weight matched for experimental use and fed with a balanced rodent diet ad libitum. AT6.1 Dunning rat prostate cells were maintained as described above. 1×10^4 log-phase cells were injected via tail vein in 0.1 mL Hanks solution. Vehicle or drug treatment was started on day 5 post inoculation and given three times a week (Monday, Wednesday and Friday) via intraperitoneal injection in 0.5 mL volume. Benzimidazole drugs were prepared in the combination carrier [DMSO (12.5%), NMP (37.5%), TWEEN®-80 (25%) and CrEL (25%)] and diluted in saline. Vehicle control was prepared by diluting the combination carrier with saline.
During the course of treatment, the mice were monitored for toxicity by measuring body weight. […] Animals were euthanized with CO2 and tissues were collected for further analysis. The animals and experiments used in these studies were approved by the institutional animal care committee according to Children's Hospital Boston ARCH guidelines.
To distinguish differences in survival between these groups, the percent increase in life span (ILS %), defined as the percent increase in the mean time to death of drug-treated animals over the corresponding time to death for vehicle-treated mice, was calculated.

tubulin = assay: In vitro tubulin polymerization assay; type: biochemical
Text: Using an in vitro tubulin polymerization assay, it was confirmed that benzimidazoles disrupt microtubule polymerization.

[2] = test system: PC3M human prostate cancer cells; assay: Cyquant cell viability assay, PC3M; type: cell-based; settings: Homo sapiens, PC-3M
Protocol: (§2) PC3M and PC3MLN4 cells were treated with vehicle, fenbendazole in DMSO, and fenbendazole in DMSO/NMP/TWEEN®-80/CrEL in varying doses for 72 hours. Cell viability assays using Cyquant reagent (Invitrogen, C7026) were performed as described in the literature. […] cells were seeded in 96 well plates overnight, before treated with either vehicle or benzimidazole solubilized in DMSO alone or in DMSO (12.5%)/NMP ([…])/TWEEN®-80 (25%)/Cr-EL (25%) for 72 hours. Cells were harvested by removing the media, washing once with phosphate buffered saline (PBS) and freezing at −80° C. for overnight. After thawing to room temperature, Cyquant reagent were prepared and added to the wells and the fluorescence intensity were measured with a spectrometer at 485 nm. Percent control was calculated by dividing the reading from drug-treated cells with the reading from vehicle-treated cells.
(§3) ED50 values were calculated from dose-effect analysis performed with Compusyn using data from the Cyquant cell viability assays.
(§4) ED50 values were calculated from dose-effect analysis performed with Compusyn using data from the Cyquant cell viability assays. All benzimidazoles drugs were solubilized in the combination carrier.

[3] = test system: PC3MLN4 human prostate cancer cells; assay: Cyquant cell viability assay, PC3MLN4
Protocol: as §2, §3, §4

PC3MLN4 cells = assay: Annexin V/7-AAD apoptosis by flow cytometry, PC3MLN4
Protocol: (§5) Annexin V/7-amino-actinomycin D labeling was done according to the manufacturer's instructions (BD Pharmingen, 559763) and samples were analyzed by flow cytometry. Briefly, the cells were treated for 72 hours with either vehicle or 1 μM benzimidazole drugs, solubilized in the combination carrier. Cells were trypsinized and washed with PBS before resuspending in assay binding buffer. Annexin V and 7-amino-actinomycin labeling was performed at room temperature for 15 minutes before analysis by flow cytometry (BD FACScan). Cells positively stained for annexin V in the lower right quadrant and upper right quadrant indicate early and late apoptosis, respectively.
All benzimidazole drugs were solubilized in the combination carrier. After 72 hours, the cells were analyzed by annexin V/7-AAD staining. Cells positively stained for annexin V in the lower right quadrant and upper right quadrant indicate early and late apoptosis, respectively.

PC3M cells = assay: Annexin V/7-AAD apoptosis by flow cytometry, PC3M; type: cell-based, human; settings: 1 μM, 72 hours, combination carrier
Protocol: All benzimidazole drugs were solubilized in the combination carrier. After 72 hours, the cells were analyzed by annexin V/7-AAD staining.
as §5

[4] = test system: AT6.1 Dunning rat prostate carcinoma; assay: Tumor burden by blood Gaussia luciferase assay in AT6.1 model; type: in vivo, nu/nu mice; settings: 100 mg/kg
Text: Similar to the survival model, treatment was not begun until day 5 when micrometastases were confirmed growing in the lung. For this approach, the AT6.1 cells were engineered to express secreted Gaussia luciferase enzyme. Using measurement of luciferase activity from the peripheral blood as an indicator of overall tumor burden, a significant reduction of tumor burden in the lungs of benzimidazole-treated animals when compared to vehicle-treated mice was observed. After 22 days, the mice were sacrificed and the lungs examined for viable tumor colonies.
Blood Gaussia luciferase assay was performed as described in the literature. Briefly, 10-20 μL peripheral blood was collected from the animals once a week via the retro-orbital vein. Secreted GAR luciferase activity was measured using a luminometer by adding 100 μL of 100 μM coelentrazine (Prolume, Nanolight, #303) to 5 μL blood and 2 μL of 20 mM EDTA. Relative luciferase reading from the blood collected represents the tumor burden in each animal. The reading was performed with blood collected at day 19 post inoculation when all mice were still alive.

[5] = Combination with paclitaxel, Cyquant cell growth inhibition, CompuSyn median-dose effect analysis; type: cell-based; settings: Fa 0.50; alone or in combination; read-out: Dose MBZ
Protocol: Cell growth inhibition assays were performed using Cyquant reagent as described above. Drug interactions were quantitated by median-dose effect analysis and combination index values as well as dose reduction index were derived using CompuSyn software (ComboSyn, Inc.), as described previously in the literature. CI values of <1, =1, and >1 indicate synergism, additivity and antagonism between the drugs, respectively.
All benzimidazole drugs were prepared using the combination carrier and diluted with culture medium prior to treatment.

[6] = test system: PC3 human prostate cancer cells; assay: Cyquant cell viability assay, PC3; type: cell-based; settings: 72 hours, read-out: ED50 PC3
Protocol: (§6) The cytotoxic effects of paclitaxel, fenbendazole, and albendazole were compared in paclitaxel-resistant PC3-TR and DU145-TR prostate cancer cells with their paclitaxel-sensitive counterparts, PC3 and DU145 cells. Cells were treated for 72 hours with vehicle, paclitaxel, fenbendazole or albendazole in various doses. Cell viability was measured using Cyquant assay, and percent control was calculated by dividing the fluorescent reading from drug-treated cells with those from vehicle-treated cells, indicating percentage of cell survival.

[7] = test system: paclitaxel-resistant PC3-TR prostate cancer cells; assay: Cyquant cell viability assay, PC3-TR; type: cell-based, human; settings: Homo sapiens; 72 hours; paclitaxel-resistant; read-out: ED50 PC3-TR
Protocol: as §6

[8] = test system: DU145 human prostate cancer cells; assay: Cyquant cell viability assay, DU145; type: cell-based; settings: DU-145, 72 hours, read-out: ED50 DU145
Protocol: as §6

[9] = test system: paclitaxel-resistant DU145-TR prostate cancer cells; assay: Cyquant cell viability assay, DU145-TR; type: cell-based, human; settings: Homo sapiens; 72 hours; paclitaxel-resistant; read-out: ED50 DU145-TR
Protocol: as §6

[10] = test system: MES-SA human uterine sarcoma cells; assay: Cell viability, MES-SA; type: cell-based; settings: read-out: ED50 MES-SA
Text: (§7) Benzimidazoles retain their anti-tumor activity in these paclitaxel-resistant cells, with higher potency when compared to the parental cells (see Table 4). Cells resistant to microtubule-stabilizing drugs such as the taxanes are more susceptible to microtubule-disrupting agents. To confirm this, human uterine sarcoma MES-SA/Dx5 cells, which are cross-resistant to various chemotherapeutic agents, including the microtubule-disrupting agents vincristine and colchicine, were used.

[11] = test system: multidrug resistant MES-SA/Dx5 human uterine sarcoma cells; assay: Cell viability, MES-SA/Dx5; type: cell-based; settings: read-out: ED50 MES-SA/Dx5
Text: as §7

PC3 cells = assay: % apoptotic cells, PC3; type: cell-based, human; settings: 1 μM
PC3-TR cells = assay: % apoptotic cells, PC3-TR; type: cell-based, human; settings: 1 μM
DU145 cells = assay: % apoptotic cells, DU145; type: cell-based, human; settings: 1 μM
DU145-TR cells = assay: % apoptotic cells, DU145-TR; type: cell-based, human; settings: 1 μM
[12] = combination carrier, Table 2, read-out: ED50 PC3M
[13] = 50 mg/kg i.p. three times a week from day 5

SMILES: CCCCNC(=O)n1c(NC(=O)OC)nc2ccccc21 [Benomyl, benomyl]
- fold induction at 1 µM (PC-3MLN4 cells): 0.99
- fold induction at 1 µM (PC-3M cells): 0.91
- fold induction at 1 µM (AT6.1 cells): 1.08
- percent increase in life span (ILS %) [1]: 7.5%
- tubulin disrupting effect (tubulin): strongest tubulin disrupting effect

SMILES: COC(=O)Nc1nc2ccccc2[nH]1 [Carbendazim, carbendazim]
- fold induction at 1 µM (PC-3MLN4 cells): 1
- fold induction at 1 µM (PC-3M cells): 0.91
- fold induction at 1 µM (AT6.1 cells): 1.08

SMILES: COC(=O)Nc1nc2cc(C(=O)c3ccc(F)cc3)ccc2[nH]1 [Flubendazole, flubendazole]
- EC50 [2, 12]: 1430 nM
- cytotoxicity in highly metastatic cells relative to PC-3M [3]: greater cytotoxicity
- fold induction at 1 µM (PC-3M cells): > 1
- fold induction at 1 µM (AT6.1 cells): > 1
- cytotoxic activity via apoptosis in highly metastatic prostate cancer cells (PC3MLN4 cells): induction of apoptosis

SMILES: COC(=O)Nc1nc2ccc(C(=O)c3ccccc3)cc2[nH]1 [Mebendazole, mebendazole]
- EC50 [2, 12]: 1210 nM
- apoptotic cells in PC3MLN4 (PC3MLN4 cells; 1 μM, 72 hours, combination carrier): 17.6%
- apoptotic cells in PC3M (PC3M cells): 16.8%
- average survival time [1, 13]: 29 days
- average survival time ([1]; 100 mg/kg i.p. three times a week from day 5): 34.6 days
- percent increase in life span (ILS %) [1]: 48.9%
- survival ([1]; 100 mg/kg, FIG. 6 (control 24.25 days)): 36.13 days
- reduction in tumor burden ([4]; blood collected at day 19, FIG. 8): most pronounced
- tumor burden compared to the control ([4]; until day 22, FIG. 9): significant reduction in tumor burden
- EC50 [5]: 17500 nM
- EC50 [6]: 2850 nM
- EC50 [7]: 750 nM
- EC50 [8]: 5900 nM
- EC50 [9]: 2970 nM
- EC50 [10]: 1270 nM
- EC50 [11]: 790 nM
- % Apoptotic cells (72 hours) PC3 (PC3 cells): 11.9%
- % Apoptotic cells (72 hours) PC3-TR (PC3-TR cells): 21.5%
- % Apoptotic cells (72 hours) DU145 (DU145 cells): 16.4%
- % Apoptotic cells (72 hours) DU145-TR (DU145-TR cells): 36.7%

SMILES: CCCOc1ccc2nc(NC(=O)OC)[nH]c2c1 [Oxibendazole, oxibendazole]
- EC50 ([2]; solubilized in DMSO alone, 72 hours, read-out: ED50 PC3M DMSO): 8820 nM
- cytotoxicity in highly metastatic cells relative to PC-3M [3]: greater cytotoxicity
- EC50 ([3]; Homo sapiens, 72 h, read-out: ED50 PC3MLN4 DMSO): 4120 nM
- fold induction at 1 µM (PC-3MLN4 cells): 1.8 to 2
- fold induction at 1 µM (PC-3M cells): > 1
- fold induction at 1 µM (AT6.1 cells): > 1
- cytotoxic activity via apoptosis in highly metastatic prostate cancer cells (PC3MLN4 cells): induction of apoptosis
- average survival time [1, 13]: 27.4 days

SMILES: c1ccc2[nH]c(-c3cscn3)nc2c1 [Thiabendazole, thiabendazole]
- fold induction at 1 µM (PC-3MLN4 cells): 0.99
- fold induction at 1 µM (PC-3M cells): 0.98
- fold induction at 1 µM (AT6.1 cells): 0.96

SMILES: COC(=O)NC(=S)Nc1ccccc1NC(=S)NC(=O)OC [Thiophanate methyl, thiophanate-methyl]
- fold induction at 1 µM (PC-3MLN4 cells): 0.95
- fold induction at 1 µM (PC-3M cells): 0.95
- fold induction at 1 µM (AT6.1 cells): 0.96
